Data on twelve compounds can be found in ChEMBL document CHEMBL3992508, “Synthesis and bioactivity investigation of quinone-based dimeric cationic triazolium amphiphiles selective against resistant fungal and bacterial pathogens” (Eur J Med Chem, 2017).

≈ marks a conversion by molar mass, not a printed value. Calls of active or inactive are those of the source. No cut-off for these calls is given here. Bounds are passed on as bounds.

Series [1] relates to Pseudomonas aeruginosa. Briefly: Antibacterial activity against Pseudomonas aeruginosa ATCC 27853. The class given is functional.
Series [2] deals with Enterococcus faecalis. Briefly: Antibacterial activity against vancomycin-resistant Enterococcus faecalis ATCC 51299. In kind it is functional.
Series [3] relates to SK-OV-3. Briefly: Cytotoxicity against human SKOV3 cells at 10 ug/ml after 48 hrs by MTT assay. In kind it is cell-based. The following applies: sk-ov-3, 48 h.
In a further series the test system is Rhodotorula mucilaginosa. Briefly: Antifungal activity against Rhodotorula pilimanae. The class given is functional.
Another series deals with Aspergillus flavus. Briefly: Antifungal activity against Aspergillus flavus. In kind it is functional.
Series [4] deals with Candida albicans. Briefly: Antifungal activity against azole-susceptible Candida albicans MYA2876. In kind it is functional.
Series [5] deals with Klebsiella pneumoniae. Briefly: Antibacterial activity against Klebsiella pneumoniae ATCC 13883. In kind it is functional.
Series [6] relates to SK-OV-3. Briefly: Cytotoxicity against human SKOV3 cells after 48 hrs. To be noted: SK-OV-3, 48 h. In kind it is cell-based.
Series [7] relates to Escherichia coli. Briefly: Antibacterial activity against Escherichia coli ATCC 25922. The class given is functional.
Series [8] relates to Staphylococcus aureus. Briefly: Antibacterial activity against Staphylococcus aureus ATCC 25923. The class given is functional.
The test system of series [9] is Candida albicans. Briefly: Antifungal activity against azole-resistant Candida albicans ATCC 64124. The class given is functional.
Series [10] deals with Staphylococcus aureus. Briefly: Antibacterial activity against methicillin-resistant Staphylococcus aureus ATCC 33591. The class given is functional.
The test system of a further series is Cryptococcus neoformans. Briefly: Antifungal activity against Cryptococcus neoformans. The class given is functional.
In series [11] the test system is Staphylococcus aureus. Briefly: Antibacterial activity against methicillin-resistant Staphylococcus aureus ATCC 33591 at 5 mg/ml. The class given is functional.
Series [12] concerns Pseudomonas aeruginosa. Briefly: Antibacterial activity against Pseudomonas aeruginosa ATCC 27853 at 5 mg/ml. The class given is functional.
The subject of series [13] is Klebsiella pneumoniae. Briefly: Antibacterial activity against Klebsiella pneumoniae ATCC 13883 at 5 mg/ml. In kind it is functional.
Series [14] relates to Staphylococcus aureus. Briefly: Antibacterial activity against Staphylococcus aureus ATCC 25923 at 5 mg/ml. The class given is functional.
The subject of series [15] is Escherichia coli. Briefly: Antibacterial activity against Escherichia coli ATCC 25922 at 5 mg/ml. In kind it is functional.
The test system of series [16] is Enterococcus faecalis. Briefly: Antibacterial activity against vancomycin-resistant Enterococcus faecalis ATCC 51299 at 5 mg/ml. The class given is functional.
The test system of series [17] is Candida albicans. Briefly: Antifungal activity against Candida albicans ATCC 64124 assessed as cell membrane disruption at MIC after 1 hr by Sytox Green dye based fluorescence assay. In kind it is functional.
A further series deals with Fusarium graminearum. Briefly: Antifungal activity against Fusarium graminearum B4-A5 assessed as cell membrane disruption at MIC after 1 hr by Sytox Green dye based fluorescence assay. In kind it is functional.

The MIC is the lowest concentration found to suppress growth. A word on the IC50: it is the concentration at which inhibition is half-maximal. With `CCCCCC[n+]1nn(CCCCCCn2n[n+](CCCCCC)c3c2C(=O)c2ccccc2C3=O)c2c1C(=O)c1ccccc1C2=O.O=S(=O)([O-])C(F)(F)F.O=S(=O)([O-])C(F)(F)F`, the MIC in the series with Pseudomonas aeruginosa [1] is 16 µg/mL; with Enterococcus faecalis [2], 4 µg/mL; against Rhodotorula mucilaginosa, 15.6 µg/mL; against Aspergillus flavus it was greater than 250 µg/mL; in the series on Candida albicans [4], greater than 250 µg/mL; in the series on Klebsiella pneumoniae [5], 250 µg/mL. Besides, the MIC is 8 to 16 µg/mL in the series on Escherichia coli [7]; 4 µg/mL in the series on Staphylococcus aureus [8]; 250 µg/mL in the series with Candida albicans [9]; 8 to 16 µg/mL in the series with Staphylococcus aureus [10]; 125 µg/mL with Cryptococcus neoformans. Also, the Activity result in the series on SK-OV-3 [3] is listed as “Non-Toxic”. In the series on SK-OV-3 [6], this compound showed an IC50 of 109 µg/mL.

Consider `CCCCCCCC[n+]1nn(CCCCCCn2n[n+](CCCCCCCC)c3c2C(=O)c2ccccc2C3=O)c2c1C(=O)c1ccccc1C2=O.O=S(=O)([O-])C(F)(F)F.O=S(=O)([O-])C(F)(F)F`, for which the MIC against Pseudomonas aeruginosa [1] came to 4 µg/mL; with Enterococcus faecalis [2] it was 1 µg/mL; in the series on Rhodotorula mucilaginosa, 2 µg/mL; in the series on Aspergillus flavus, 15.6 µg/mL; against Candida albicans [4] it was 3.91 µg/mL; in the series with Klebsiella pneumoniae [5], 16 µg/mL. Moreover, the MIC was 2 to 4 µg/mL in the series on Escherichia coli [7]; 4 µg/mL in the series with Staphylococcus aureus [8]; 3.91 µg/mL in the series with Candida albicans [9]; 4 to 8 µg/mL against Staphylococcus aureus [10]; 3.9 µg/mL against Cryptococcus neoformans. In addition, the Activity result in the series with SK-OV-3 [3] is on record as “Non-Toxic”. Also, the IC50 with SK-OV-3 [6] turned out to be 74 µg/mL.

As to `OC(Cn1cncn1)(Cn1cncn1)c1ccc(F)cc1F` [FLUCONAZOLE], the MIC is 1.56 µg/mL (≈ 5.09 µM) with Candida albicans [4] and greater than 250 µg/mL against Candida albicans [9].

Consider `CN[C@H](CC(C)C)C(=O)N[C@H]1C(=O)N[C@@H](CC(N)=O)C(=O)N[C@H]2C(=O)N[C@H]3C(=O)N[C@H](C(=O)N[C@H](C(=O)O)c4cc(O)cc(O)c4-c4cc3ccc4O)[C@H](O)c3ccc(c(Cl)c3)Oc3cc2cc(c3O[C@@H]2O[C@H](CO)[C@@H](O)[C@H](O)[C@H]2O[C@H]2C[C@](C)(N)[C@H](O)[C@H](C)O2)Oc2ccc(cc2Cl)[C@H]1O` [VANCOMYCIN], for which the MIC against Pseudomonas aeruginosa [1] is greater than 250 µg/mL; against Enterococcus faecalis [2], 125 µg/mL (≈ 86.3 µM); in the series with Klebsiella pneumoniae [5], greater than 250 µg/mL; against Escherichia coli [7], 64 to 125 µg/mL (≈ 44.2 to 86.3 µM); with Staphylococcus aureus [10] it was 2 to 4 µg/mL (≈ 1.38 to 2.76 µM).

Turning to `O=C1c2ccccc2C(=O)c2c1nnn2CCCCCCn1nnc2c1C(=O)c1ccccc1C2=O`, the result in the series with Staphylococcus aureus [11], in the series with Pseudomonas aeruginosa [12], in the series on Klebsiella pneumoniae [13], in the series with Staphylococcus aureus [14], in the series on Escherichia coli [15] and in the series on Enterococcus faecalis [16] was inactive.

For the compound `C[n+]1nn(CCCCCCn2n[n+](C)c3c2C(=O)c2ccccc2C3=O)c2c1C(=O)c1ccccc1C2=O.O=S(=O)([O-])C(F)(F)F.O=S(=O)([O-])C(F)(F)F`, the MIC in the series with Pseudomonas aeruginosa [1] is 250 µg/mL; with Enterococcus faecalis [2], 16 µg/mL; in the series on Rhodotorula mucilaginosa, 62.5 µg/mL; against Aspergillus flavus it was greater than 250 µg/mL; in the series on Candida albicans [4] it was greater than 250 µg/mL; in the series with Klebsiella pneumoniae [5], 250 µg/mL. Moreover, the MIC in the series with Escherichia coli [7] is greater than 250 µg/mL; in the series on Staphylococcus aureus [8] it was 0.125 µg/mL; in the series on Candida albicans [9], greater than 250 µg/mL; in the series on Staphylococcus aureus [10], greater than 250 µg/mL; with Cryptococcus neoformans, 125 µg/mL. Further, in the series with SK-OV-3 [3], the Activity entry was “Toxic”. The compound also had an IC50 in the series with SK-OV-3 [6] of 46.1 µg/mL.

As to `CCCCCCCCS(=O)(=O)OC[C@H]1O[C@H](O[C@@H]2[C@@H](O)[C@H](O[C@H]3O[C@H](CN)[C@@H](O)[C@H](O)[C@H]3O)[C@@H](N)C[C@H]2N)[C@H](O)[C@@H](N)[C@@H]1O.Cl.Cl.Cl.Cl`, the MIC with Aspergillus flavus was greater than 250 µg/mL; with Candida albicans [4], 15.6 µg/mL; in the series with Candida albicans [9], 31.3 µg/mL; with Cryptococcus neoformans, 7.8 µg/mL.

Take `CC[n+]1nn(CCCCCCn2n[n+](CC)c3c2C(=O)c2ccccc2C3=O)c2c1C(=O)c1ccccc1C2=O.O=S(=O)([O-])C(F)(F)F.O=S(=O)([O-])C(F)(F)F`: the MIC with Pseudomonas aeruginosa [1] is 250 µg/mL; against Enterococcus faecalis [2] it was 32 µg/mL; in the series on Aspergillus flavus, greater than 250 µg/mL; against Candida albicans [4] it was greater than 250 µg/mL; in the series on Klebsiella pneumoniae [5], 250 µg/mL; in the series with Escherichia coli [7] it was greater than 250 µg/mL. Moreover, the MIC against Staphylococcus aureus [8] is 0.125 µg/mL; in the series on Candida albicans [9] it was greater than 250 µg/mL; in the series on Staphylococcus aureus [10], greater than 250 µg/mL.

On to `CCCCCCCCCC[n+]1nn(CCCCCCn2n[n+](CCCCCCCCCC)c3c2C(=O)c2ccccc2C3=O)c2c1C(=O)c1ccccc1C2=O.O=S(=O)([O-])C(F)(F)F.O=S(=O)([O-])C(F)(F)F`, for which the MIC in the series with Pseudomonas aeruginosa [1] came out at 4 µg/mL; in the series with Enterococcus faecalis [2], 1 µg/mL; against Rhodotorula mucilaginosa, 2 µg/mL; with Aspergillus flavus it was 7.81 µg/mL; in the series on Candida albicans [4], 3.91 µg/mL; in the series on Klebsiella pneumoniae [5] it was 32 µg/mL. For the same compound, the MIC with Escherichia coli [7] is 4 to 8 µg/mL; with Staphylococcus aureus [8] it was 8 µg/mL; in the series with Candida albicans [9], 3.91 µg/mL; in the series with Staphylococcus aureus [10] it was 4 to 8 µg/mL; in the series with Cryptococcus neoformans, 2 µg/mL. Also, the Activity entry in the series on SK-OV-3 [3] is given as “Non-Toxic”. In addition, the result in the series on Candida albicans [17] and with Fusarium graminearum was Active. In addition, the IC50 in the series on SK-OV-3 [6] amounted to 68.4 µg/mL.

As for `NC[C@H]1O[C@H](O[C@H]2[C@H](O)[C@@H](O[C@H]3O[C@H](CO)[C@@H](O)[C@H](N)[C@H]3O)[C@H](N)C[C@@H]2N)[C@H](O)[C@@H](O)[C@@H]1O` [KANAMYCIN], the MIC in the series on Pseudomonas aeruginosa [1] is 125 µg/mL (≈ 258 µM); with Enterococcus faecalis [2], 250 µg/mL (≈ 516 µM); in the series with Klebsiella pneumoniae [5] it was 1 µg/mL (≈ 2.06 µM); in the series with Escherichia coli [7] it was 4 µg/mL (≈ 8.26 µM); against Staphylococcus aureus [8] it was 2 to 4 µg/mL (≈ 4.13 to 8.26 µM); against Staphylococcus aureus [10] it was 125 to 250 µg/mL (≈ 258 to 516 µM).

Take `NCC[C@H](O)C(=O)N[C@@H]1C[C@H](N)[C@@H](O[C@H]2O[C@H](CN)[C@@H](O)[C@H](O)[C@H]2O)[C@H](O)[C@H]1O[C@H]1O[C@H](CO)[C@@H](O)[C@H](N)[C@H]1O` [AMIKACIN]: the MIC is 1 µg/mL (≈ 1.71 µM) against Pseudomonas aeruginosa [1]; greater than 250 µg/mL in the series with Enterococcus faecalis [2]; 1 µg/mL (≈ 1.71 µM) against Klebsiella pneumoniae [5]; 1 µg/mL (≈ 1.71 µM) in the series with Escherichia coli [7]; 0.5 µg/mL (≈ 0.854 µM) against Staphylococcus aureus [8]; 16 µg/mL (≈ 27.3 µM) against Staphylococcus aureus [10].

Turning to `CCCC[n+]1nn(CCCCCCn2n[n+](CCCC)c3c2C(=O)c2ccccc2C3=O)c2c1C(=O)c1ccccc1C2=O.O=S(=O)([O-])C(F)(F)F.O=S(=O)([O-])C(F)(F)F`, the MIC in the series on Pseudomonas aeruginosa [1] is 32 µg/mL; against Enterococcus faecalis [2] it was 16 µg/mL; against Aspergillus flavus it was greater than 250 µg/mL; against Candida albicans [4], greater than 250 µg/mL; against Klebsiella pneumoniae [5], 250 µg/mL; with Escherichia coli [7] it was greater than 250 µg/mL. For the same compound, the MIC is 0.125 µg/mL in the series on Staphylococcus aureus [8], 250 µg/mL in the series with Candida albicans [9] and greater than 250 µg/mL with Staphylococcus aureus [10]. Moreover, the Activity entry with SK-OV-3 [3] is “Non-Toxic”. In addition, the IC50 in the series with SK-OV-3 [6] was 115 µg/mL.
